Tests used:
[1] = target: T1, Peptide deformylase, mitochondrial (Homo sapiens) (UniProt Q9HBH1); experiment: Inhibition of PDF in human A549 cells assessed as decrease in mtDNA encoded COX1 protein level measured after 48 hrs by Western blot analysis; type: cell-based
T1 sequence (whole entry): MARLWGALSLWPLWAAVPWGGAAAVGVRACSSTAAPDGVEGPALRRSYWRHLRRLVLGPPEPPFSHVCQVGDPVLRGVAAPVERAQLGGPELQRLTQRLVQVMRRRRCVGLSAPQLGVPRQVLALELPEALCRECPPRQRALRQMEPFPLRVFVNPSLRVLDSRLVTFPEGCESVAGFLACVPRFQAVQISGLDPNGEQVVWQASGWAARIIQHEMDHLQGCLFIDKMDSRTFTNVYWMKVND

[2] = target: T2, Protein deacetylase HDAC6 (Homo sapiens) (UniProt Q9UBN7); experiment: Inhibition of HDAC6 (unknown origin) at 10 uM using Boc-Lys(Ac)-pNA as substrate preincubated for 20 mins followed by substrate addition and further incubated for 90 mins by fluorescence assay relative to control
T2 sequence (whole entry): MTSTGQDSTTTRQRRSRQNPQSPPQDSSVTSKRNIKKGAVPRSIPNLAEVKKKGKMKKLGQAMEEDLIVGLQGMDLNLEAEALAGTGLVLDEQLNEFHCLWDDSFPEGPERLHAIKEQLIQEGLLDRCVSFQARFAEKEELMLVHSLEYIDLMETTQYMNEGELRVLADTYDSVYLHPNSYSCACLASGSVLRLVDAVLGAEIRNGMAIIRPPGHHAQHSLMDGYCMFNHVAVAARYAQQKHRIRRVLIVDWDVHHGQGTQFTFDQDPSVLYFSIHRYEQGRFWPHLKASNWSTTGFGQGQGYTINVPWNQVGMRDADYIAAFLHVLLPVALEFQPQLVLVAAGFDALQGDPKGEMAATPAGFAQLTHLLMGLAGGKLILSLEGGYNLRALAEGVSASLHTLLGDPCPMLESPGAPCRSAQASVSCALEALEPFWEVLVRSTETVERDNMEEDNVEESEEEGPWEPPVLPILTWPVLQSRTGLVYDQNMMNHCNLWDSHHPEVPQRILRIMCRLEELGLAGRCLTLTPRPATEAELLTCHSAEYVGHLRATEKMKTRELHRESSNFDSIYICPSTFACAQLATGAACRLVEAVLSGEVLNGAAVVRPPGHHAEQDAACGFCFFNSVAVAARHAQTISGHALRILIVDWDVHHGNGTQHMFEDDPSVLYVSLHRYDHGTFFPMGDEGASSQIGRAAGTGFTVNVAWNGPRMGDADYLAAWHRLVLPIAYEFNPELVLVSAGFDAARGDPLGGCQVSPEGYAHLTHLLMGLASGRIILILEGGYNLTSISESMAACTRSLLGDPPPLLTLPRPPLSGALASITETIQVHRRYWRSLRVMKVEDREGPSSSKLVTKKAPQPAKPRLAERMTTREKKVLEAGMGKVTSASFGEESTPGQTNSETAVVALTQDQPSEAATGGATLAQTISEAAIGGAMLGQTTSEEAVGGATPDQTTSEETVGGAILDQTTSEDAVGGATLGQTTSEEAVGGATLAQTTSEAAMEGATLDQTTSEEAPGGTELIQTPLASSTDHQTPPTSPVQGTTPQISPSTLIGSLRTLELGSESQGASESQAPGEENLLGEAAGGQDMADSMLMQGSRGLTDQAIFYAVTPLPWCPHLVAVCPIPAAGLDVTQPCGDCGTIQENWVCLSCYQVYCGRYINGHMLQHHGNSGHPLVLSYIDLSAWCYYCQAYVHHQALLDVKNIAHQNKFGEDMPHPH

[3] = Oral bioavailability in Sprague-Dawley rat at 20 mg/kg measured up to 24 hrs by LC-MS/MS analysis; type: ADME, organism-based; conditions: in vivo
[4] = AUC (0 to infinity) in Sprague-Dawley rat at 20 mg/kg, po measured up to 24 hrs by LC-MS/MS analysis; type: ADME, organism-based; parameters: dose 20 mg/kg, route oral, time infinity; conditions: in vivo
[5] = target: T1, Peptide deformylase, mitochondrial (Homo sapiens); experiment: Inhibition of PDF in human MCF7 cells assessed as decrease in mtDNA encoded COX1 protein level measured after 48 hrs by Western blot analysis; type: cell-based
[6] = Acute toxicity in iv dosed KM mouse administered as single dose measured for 14 days; type: organism-based; conditions: in vivo
A549 [7] = experiment: Induction of apoptosis in human A549 cells assessed as late apoptotic cells at 40 uM measured after 48 hrs by Annexin V-FITC/propidium iodide staining based FACSClibur flow cytometry analysis (reference value: 3.63 %); type: functional
A549 [8] = experiment: Induction of apoptosis in human A549 cells assessed as necrotic cells at 40 uM measured after 48 hrs by Annexin V-FITC/propidium iodide staining based FACSClibur flow cytometry analysis (reference value: 0.49 %); type: functional
HCT-116 [9] = experiment: Antitumor activity against human HCT116 cells xenografted in BALB/c nude mouse assessed as tumor growth inhibition at 25 mg/kg, ip administered every 3 days for 21 days and measured every second day for 21 days during compound dosing by digital caliper method relative to control; type: functional; conditions: HCT-116, ip, read-out: TGI
[10] = Toxicity in KM mouse assessed as weight loss at 262.1 to 640 mg/kg, ip administered as single dose measured 3 times per week for 14 days; type: organism-based; conditions: in vivo, 336 h
HCT-116 [11] = experiment: Antiproliferative activity against human HCT116 cells assessed as reduction in cell growth measured after 48 hrs by CCK8 assay; type: functional, cell-based; conditions: HCT-116, 48 h
HCT-116 [12] = experiment: Antitumor activity against human HCT116 cells xenografted in BALB/c nude mouse assessed as tumor growth inhibition at 50 mg/kg, ip administered every 3 days for 21 days and measured every second day for 21 days during compound dosing by digital caliper method relative to control; type: functional; conditions: HCT-116, ip, read-out: TGI
[13] = Drug concentration in plasma of Sprague-Dawley rat at 2 mg/kg, iv measured after 5 mins by LC-MS/MS analysis; type: ADME, organism-based
[14] = Selectivity index, ratio of IC50 for human MCF10A cells assessed as reduction in cell growth measured after 48 hrs by CCK8 assay to IC50 for human HCT116 cells assessed as reduction in cell growth measured after 48 hrs by CCK8; type: toxicity; conditions: MCF10A cells versus HCT116 cells, read-out: Ratio IC50
[15] = Toxicity in BALB/c nude mouse xenografted with human HCT116 cells assessed as adverse effect at 25 to 50 mg/kg, ip administered every 3 days for 21 days; type: organism-based, HCT-116; conditions: in vivo
Histone deacetylase 1 = Histone deacetylase 1 (Homo sapiens, UniProt Q13547); experiment: Inhibition of HDAC1 (unknown origin) at 10 uM using Boc-Lys(Ac)-pNA as substrate preincubated for 20 mins followed by substrate addition and further incubated for 90 mins by fluorescence assay relative to control
[16] = Terminal half life in Sprague-Dawley rat at 2 mg/kg, iv measured up to 24 hrs by LC-MS/MS analysis; type: ADME, organism-based; conditions: in vivo, read-out: beta t1/2 (converted)
[17] = target: T3, Protein deacetylase HDAC6 (Homo sapiens, UniProt Q9UBN7); experiment: Inhibition of HDAC6 (unknown origin) using Boc-Lys(Ac)-pNA as substrate preincubated for 20 mins followed by substrate addition and further incubated for 90 mins by fluorescence assay
T3 sequence (Q9UBN7 whole entry): T2 sequence (whole entry)

Histone deacetylase 1, sequence (Q13547 whole entry): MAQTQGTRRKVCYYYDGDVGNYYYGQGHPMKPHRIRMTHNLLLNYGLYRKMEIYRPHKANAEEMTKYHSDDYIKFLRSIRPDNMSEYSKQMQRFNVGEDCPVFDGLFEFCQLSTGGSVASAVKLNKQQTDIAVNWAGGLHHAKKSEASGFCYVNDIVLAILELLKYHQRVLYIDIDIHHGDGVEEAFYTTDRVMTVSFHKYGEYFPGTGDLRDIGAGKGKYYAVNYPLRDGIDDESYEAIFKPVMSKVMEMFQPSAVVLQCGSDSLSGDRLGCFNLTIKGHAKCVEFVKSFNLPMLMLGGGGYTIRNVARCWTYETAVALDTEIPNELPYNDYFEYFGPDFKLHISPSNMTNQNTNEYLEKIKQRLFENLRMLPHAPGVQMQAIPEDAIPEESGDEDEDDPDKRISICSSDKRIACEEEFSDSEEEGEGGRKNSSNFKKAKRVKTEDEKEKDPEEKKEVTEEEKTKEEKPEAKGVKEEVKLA

Q: For O=C(C[C@@H](CC1CCCC1)C(=O)N1CC2(CC2)C[C@H]1c1nc(-c2ccc(F)cc2C(F)(F)F)no1)NO, which inhibition [1] is on record?
A: Dose-dependent effect

Q: What about the inhibition [2] of the same compound?
A: 0.41%

Q: What about the F [3] of the same compound?
A: 23.5%

Q: And the AUC [4]?
A: 940 ng·h/mL

Q: And the inhibition [5]?
A: Dose-dependent effect

Q: And the LD50 at 336 h [6]?
A: 287 to 452 mg/kg

Q: What about the Activity (A549 [7]) of the same compound?
A: 5.55%

Q: What about the Activity (A549 [8]) of the same compound?
A: 1.01%

Q: And the inhibition in vivo at 25 mg/kg (HCT-116 [9])?
A: 64%

Q: And the Activity [10]?
A: Toxic

Q: And the IC50 (HCT-116 [11])?
A: 1980 nM

Q: And the inhibition in vivo at 50 mg/kg (HCT-116 [12])?
A: 72.5%

Q: What about the concentration at 5 min [13] of the same compound?
A: 136 ng/mL

Q: And the selectivity ratio at 48 h [14]?
A: 9

Q: And the Activity [15]?
A: Non-Toxic

Q: And the inhibition (Histone deacetylase 1)?
A: -0.35%

Q: What about the half-life [16] of the same compound?
A: 3.7 h

Q: What about the IC50 [17] of the same compound?
A: > 10000 nM
